Measurements published in patent publication US20230114728A1 (Venatorx Pharmaceuticals, Inc., priority 2019, published 2023).

How the values were obtained:
E. coli K12 PBP1b = target: T1, E. coli K12 PBP1b (Escherichia coli, UniProt P02919); experiment: Radioligand competition binding assay with 14C-labeled boronic acid probe, E. coli PBP1b; details: PBP1a/PBP1b at 0.1 μM, Compound A at 20 μM; E. coli PBP1b; read-out: EC50 (the concentration of inhibitor required to reduce binding of Compound A by 50%)
T1 construct: made in house
Source text: (§1) Example II: Experimental Method to Assess Binding to Penicillin-Binding Proteins: Radioligand Competition Binding Assay
(§2) To determine the ability of boronic acid-based test PBP inhibitors to bind Penicillin Binding Proteins (PBPs), a radio-labelled boronic acid PBP inhibitor:
was used in competition binding assays to determine boronic acid PBP inhibitor binding to PBP1a or PBP1b from Escherichia coli. PBP1a and PBP1b were purified as described previously (Bertsche, U.; et al., J Biol. Chem. 2005, 280 (45), 38096-38101; Born, P.; et al., J Biol. Chem. 2006. 281 (37), 26985-26993). To establish assay conditions for competition binding, an enzyme titration/saturation binding experiment was performed. Saturation binding was performed in a buffer comprised of 20 mM Tris (pH 7.5), 500 mM NaCl and 0.1% (v/v) TritonX-100, with PBP1a/PBP1b at a final concentration of 0.1 μM and Compound A at final concentrations ranging from 0-100 μM. Mixtures were incubated for 60 minutes, then applied to Zeba Spin Desalting columns or plates (ThermoFisher Scientific) and centrifuged at 1000-1500×g for 2 minutes. The flow through, containing PBP bound with Compound A, was recovered and 100 μL mixed with 5 mL of UltimaGold liquid scintillation cocktail (Perkin Elmer), and the radioactivity counted using a Beckman Coulter LS 6500 Multipurpose scintillation counter. PBP binding of Compound A approached saturation at 20 μM of ^14C-labeled probe. The competition binding assay was validated using the beta-lactam ampicillin, with Compound A at a final concentration of 20 μM, PBP1a/PBP1b at a final concentration of 0.1 μM. PBP1a/PBP1b was incubated with ampicillin in a 96-well microplate for 60 minutes, then Compound A was added and the mixtures incubated for an additional 60 minutes. The mixtures were then applied to Zeba Spin desalting plates and centrifuged at 1000×g for 2 minutes. The flow through was recovered and 100 μl mixed with 5 ml of UltimaGold liquid scintillation cocktail and the radioactivity counted. […] Binding assays with boronic acid PBP inhibitors were performed in an identical fashion. […]

E. coli K12 PBP1a = target: T2, E. coli K12 PBP1a (Escherichia coli, UniProt P02918); experiment: Radioligand competition binding assay with 14C-labeled boronic acid probe, E. coli PBP1a; details: PBP1a/PBP1b at 0.1 μM, Compound A at 20 μM, read-out: EC50 (the concentration of inhibitor required to reduce binding of Compound A by 50%)
T2 construct: made in house
Source text: as §1, §2
was used in competition binding assays to determine boronic acid PBP inhibitor binding to PBP1a or PBP1b from Escherichia coli. PBP1a and PBP1b were purified as described previously (Bertsche, U.; et al., J Biol. Chem. 2005, 280 (45), 38096-38101; Born, P.; et al., J Biol. Chem. 2006. 281 (37), 26985-26993). To establish assay conditions for competition binding, an enzyme titration/saturation binding experiment was performed. Saturation binding was performed in a buffer comprised of 20 mM Tris (pH 7.5), 500 mM NaCl and 0.1% (v/v) TritonX-100, with PBP1a/PBP1b at a final concentration of 0.1 μM and Compound A at final concentrations ranging from 0-100 μM. […] The flow through, containing PBP bound with Compound A, was recovered and 100 μL mixed with 5 mL of UltimaGold liquid scintillation cocktail (Perkin Elmer), and the radioactivity counted using a Beckman Coulter LS 6500 Multipurpose scintillation counter. […] The flow through was recovered and 100 μl mixed with 5 ml of UltimaGold liquid scintillation cocktail and the radioactivity counted. […]

T1 sequence (P02919 whole entry): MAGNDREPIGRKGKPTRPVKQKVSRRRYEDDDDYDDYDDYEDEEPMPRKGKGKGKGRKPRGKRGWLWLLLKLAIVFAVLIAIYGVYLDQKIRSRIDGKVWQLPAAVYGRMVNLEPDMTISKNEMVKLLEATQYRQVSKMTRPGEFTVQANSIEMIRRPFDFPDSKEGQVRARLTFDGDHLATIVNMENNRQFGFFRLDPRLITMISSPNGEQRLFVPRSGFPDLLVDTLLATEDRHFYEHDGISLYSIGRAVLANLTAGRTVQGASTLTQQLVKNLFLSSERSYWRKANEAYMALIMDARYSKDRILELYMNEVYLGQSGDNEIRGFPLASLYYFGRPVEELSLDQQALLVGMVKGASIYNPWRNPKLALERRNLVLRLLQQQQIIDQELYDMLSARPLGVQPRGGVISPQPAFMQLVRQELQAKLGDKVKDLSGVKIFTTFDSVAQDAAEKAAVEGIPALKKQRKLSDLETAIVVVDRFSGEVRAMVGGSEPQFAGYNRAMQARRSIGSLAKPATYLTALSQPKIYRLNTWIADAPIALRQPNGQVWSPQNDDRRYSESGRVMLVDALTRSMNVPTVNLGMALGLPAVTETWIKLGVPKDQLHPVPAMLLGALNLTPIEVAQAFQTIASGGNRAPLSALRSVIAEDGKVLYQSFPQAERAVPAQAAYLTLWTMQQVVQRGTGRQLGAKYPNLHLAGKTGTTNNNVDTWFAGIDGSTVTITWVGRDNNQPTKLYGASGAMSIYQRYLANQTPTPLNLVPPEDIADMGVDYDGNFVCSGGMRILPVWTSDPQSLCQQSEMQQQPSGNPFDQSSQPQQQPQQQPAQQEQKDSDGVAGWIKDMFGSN
T2 sequence (P02918 whole entry): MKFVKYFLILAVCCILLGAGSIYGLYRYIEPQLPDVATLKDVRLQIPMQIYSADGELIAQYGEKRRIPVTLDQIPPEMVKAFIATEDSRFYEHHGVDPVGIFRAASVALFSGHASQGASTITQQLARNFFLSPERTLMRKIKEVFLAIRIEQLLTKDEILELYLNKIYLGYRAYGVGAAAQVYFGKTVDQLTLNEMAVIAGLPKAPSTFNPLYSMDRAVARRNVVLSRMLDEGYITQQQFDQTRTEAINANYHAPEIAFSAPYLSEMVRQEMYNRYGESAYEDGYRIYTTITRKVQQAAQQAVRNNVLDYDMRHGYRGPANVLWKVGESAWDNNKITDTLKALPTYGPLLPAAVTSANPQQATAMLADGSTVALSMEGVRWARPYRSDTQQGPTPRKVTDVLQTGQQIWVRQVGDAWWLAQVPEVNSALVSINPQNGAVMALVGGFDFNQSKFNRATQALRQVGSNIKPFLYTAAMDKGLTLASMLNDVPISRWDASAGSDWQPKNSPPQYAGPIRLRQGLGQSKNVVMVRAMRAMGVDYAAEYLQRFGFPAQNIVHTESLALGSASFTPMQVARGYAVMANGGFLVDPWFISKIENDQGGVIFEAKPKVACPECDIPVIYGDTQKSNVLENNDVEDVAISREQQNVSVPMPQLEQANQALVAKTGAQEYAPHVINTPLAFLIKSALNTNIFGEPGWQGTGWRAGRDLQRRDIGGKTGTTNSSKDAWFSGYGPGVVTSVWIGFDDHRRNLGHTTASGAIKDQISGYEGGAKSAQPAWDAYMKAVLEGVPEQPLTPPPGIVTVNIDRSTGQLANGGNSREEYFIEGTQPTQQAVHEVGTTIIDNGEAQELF

CC1(C)S[C@@H]2[C@H](NC(=O)[C@H](N)c3ccccc3)C(=O)N2[C@H]1C(=O)O [ampicillin, reference compound]
EC50 (E. coli K12 PBP1b): < 500 nM
EC50 (E. coli K12 PBP1a): < 500 nM
